Laboratory results as given in article PMC6331893, “Autodisplay of Human Hyaluronidase Hyal-1 on Escherichia coli and Identification of Plant-Derived Enzyme Inhibitors” (Molecules, 2015).
Where two headings read alike, the source gives them in different places.

Target: T1, human hyaluronidase Hyal-1 (Homo sapiens, UniProt Q12794)
T1 construct: gene HYAL1
T1 sequence (Q12794 22-435): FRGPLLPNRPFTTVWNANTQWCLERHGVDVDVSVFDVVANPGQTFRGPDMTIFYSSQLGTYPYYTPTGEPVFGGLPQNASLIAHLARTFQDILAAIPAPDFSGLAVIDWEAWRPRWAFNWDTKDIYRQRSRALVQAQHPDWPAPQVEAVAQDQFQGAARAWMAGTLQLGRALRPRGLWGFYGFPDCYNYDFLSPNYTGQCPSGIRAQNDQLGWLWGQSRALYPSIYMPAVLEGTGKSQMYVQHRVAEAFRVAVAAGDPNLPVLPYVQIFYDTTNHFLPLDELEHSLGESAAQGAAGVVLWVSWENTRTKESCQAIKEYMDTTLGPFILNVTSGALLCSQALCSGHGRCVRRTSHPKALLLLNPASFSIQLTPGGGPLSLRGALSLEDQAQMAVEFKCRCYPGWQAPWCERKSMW
Assay: whole-cell "stains-all" hyaluronidase activity assay with surface-displayed Hyal-1, dose-response
Format: cell-based

Compound	IC50 (read-out: IC50 Value) [µM]	IC50 [µM]
C[C@@H]1O[C@@H](O[C@H]2[C@H](OC(=O)[C@]34CCC(C)(C)C[C@H]3C3=CC[C@@H]5[C@@]6(C)CC[C@H](O[C@H]7O[C@H](C(=O)O)[C@@H](O)[C@H](O[C@@H]8OC[C@@H](O)[C@H](O)[C@H]8O)[C@H]7O[C@@H]7O[C@H](CO)[C@H](O)[C@H](O)[C@H]7O)[C@@](C)(C=O)[C@@H]6CC[C@@]5(C)[C@]3(C)CC4)O[C@H](C)[C@H](O[C@@H]3O[C@H](C)[C@@H](O)[C@H](O)[C@H]3O)[C@@H]2O)[C@H](O)[C@H](O)[C@H]1O[C@@H]1OC[C@@H](O)[C@H](O[C@@H]2OC[C@@H](O)[C@H](O)[C@H]2O)[C@H]1O [SA1641]	296	–
CC1(C)[C@@H](O[C@H]2O[C@H](C(=O)O)[C@@H](O)[C@H](O)[C@H]2O[C@@H]2O[C@H](C(=O)O)[C@@H](O)[C@H](O)[C@H]2O)CC[C@]2(C)[C@H]3C(=O)C=C4[C@@H]5C[C@@](C)(C(=O)O)CC[C@]5(C)CC[C@@]4(C)[C@]3(C)CC[C@@H]12 [glycyrrhizic acid]	–	177
gypsophila saponin 2	108	–
